Reference: the METLIN SMRT retention time set (Domingo-Almenara et al. 2019)

experiment: gradient 5% acetonitrile 3 min, to 50% in 2 min, to 85% in 15 min, held 3 min, 100 µL/min; conditions: column: Zorbax Extend-C18 2.1 x 50 mm; eluents: water / acetonitrile, 0.1% formic acid
Method in brief: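 A Zorbax Extend-C18 column (2.1 × 50 mm, 1.8 μm) run at 100 μL/min with water and acetonitrile, both containing 0.1% formic acid, separated mixtures of ~100 pure standards. The HPLC was coupled to a quadrupole time-of-flight mass spectrometer operated in positive and negative ionization mode, with dead and dwell volumes of 40 μL and 900 μL. Each retention time was taken from a computationally picked adduct peak that was then manually inspected.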

Compound | RP-LC retention time
CCCn1c(=O)sc2cc(S(=O)(=O)N3CCC(C(=O)Nc4cc(C)cc(C)c4)CC3)ccc21 | 1060 s
COc1ccc(-c2cc3nn(CC(=O)Nc4ccc(F)cc4)c(=O)n3c(C)n2)cc1 | 914 s
CNS(=O)(=O)c1cccc(-c2nnc(-c3ccc(C)cc3)o2)c1 | 856 s
CC(C)C(=O)NCc1csc(C2CCN(C(=O)C3CCC3)CC2)n1 | 876 s
CCOc1ccc(NC(=O)Cn2ccc3ccc(-c4nnc(C)o4)cc32)cc1 | 804 s
CC1=C(c2cccc(Cl)c2)S(=O)(=O)N=C1N1CCC(NC(=O)C2CCCO2)CC1 (stereo unspecified) | 771 s
CC1CCCN(CC2CCN(S(=O)(=O)Cc3ccc(Cl)cc3)CC2)C1 (stereo unspecified) | 690 s
CCn1c(=O)c2c(nc3n2CC(C)CN3C2CCCCC2)n(C)c1=O (stereo unspecified) | 828 s
Cc1cnc(C(=O)N2CCOCCNC(=O)[C@@H]3CCC[C@@H]32)cn1 | 599 s
O=S(=O)(c1cc(-c2noc(C3CCCC3)n2)cs1)N(Cc1cccs1)C1CCCC1 | 933 s
CCCCNC(=O)C(C)n1nc(C)c2c(C)n(-c3ccccc3)nc2c1=O (stereo unspecified) | 787 s
CCOC(=O)C1CCC(CNC(=O)Nc2ccc3nc(N4CCN(C)CC4)cc(C)c3c2)CC1 (stereo unspecified) | 584 s
Cc1nc(C)c(C(=O)NCC2CCCCC(=O)N2)s1 (stereo unspecified) | 595 s
COc1ccccc1-c1nc(C2CC(=O)N(c3ccc(F)c(Cl)c3)C2)no1 (stereo unspecified) | 1020 s
COc1ccc2[nH]c3c(c2c1)CCNC3c1ccc(F)cc1 (stereo unspecified) | 623 s
Cc1ccc2c(c1)N(S(C)(=O)=O)CCC(C(=O)Nc1cccc(Br)c1)O2 (stereo unspecified) | 1060 s
O=C(O)CCC1CCN(S(=O)(=O)c2cccc(F)c2)CC1 | 765 s
CCNC(=O)C1CCCN(c2nc3ncn(CC(=O)Nc4ccc5c(c4)CCC5)c(=O)c3s2)C1 (stereo unspecified) | 717 s

Compound | RP-LC retention time
CN(Cc1cccn1C)C(=O)NC1CCCCC1 | 836 s
Cc1cc2[nH]c(C(=O)Nc3cc(F)cc(F)c3)c(CN3CCOCC3)c2s1 | 738 s
CCN(CC)CCCn1c(C)cc2c(c1=O)C(c1ccc(Cl)cc1)C(C#N)=C(N)O2 (stereo unspecified) | 658 s
CCCNC(=O)c1nc(C)n(C2CCN(S(C)(=O)=O)CC2)c1C | 542 s
COc1ccc(C)cc1NC(=O)C1CCN(S(=O)(=O)c2ccc3c(c2)CCCC(=O)N3)CC1 | 816 s
COc1ccc(NS(=O)(=O)c2cc(-c3cc(C(F)(F)F)on3)sc2C)cc1OC | 1020 s
COc1cc(-c2oc3cc(O)cc(O)c3c(=O)c2OC[C@@H]2OC(O[C@@H]3O[C@@H](C)[C@H](O)[C@@H](O)[C@H]3O)[C@@H](O)[C@H](O)[C@@H]2O)ccc1O (stereo partly specified) | 638 s
COc1ccc(OC)c(NC(=O)c2cc(S(=O)(=O)N3CCC(C)CC3)cn2C)c1 | 1060 s
O=C(O)c1ccc2cc(-c3ccc(O)c(C4C5CC6CC(C5)CC4C6)c3)ccc2c1 (stereo unspecified) | 1240 s
O=C(NCCC1=CCCCC1)C1CC(=O)N(C2CCCCCC2)C1 (stereo unspecified) | 906 s
CN1C(=O)[C@H]2CN(Cc3ccc(Cl)c(F)c3)C[C@H]2C1=O | 632 s
Cc1ccc(NC(=O)C2CC(=O)N(c3ccc4c(c3)CCN4C(=O)C3CC3)C2)c(C)c1 (stereo unspecified) | 805 s
Cn1c(=O)c2c3c(cnc2n(C)c1=O)C(=O)CC(c1cccc(Cl)c1)C3 (stereo unspecified) | 1020 s
O=C1COc2ccc(-c3csc(NC(=O)C4CCCO4)n3)cc2N1 (stereo unspecified) | 715 s
Cc1cc(C(=O)N2CCC3(CC2)CC(O)CCO3)c(C)o1 (stereo unspecified) | 624 s
COc1ccc(CCc2nc3nccc(-c4ccc(OC)cc4F)n3n2)cc1 | 941 s
COc1ccc(-c2nc(Cn3c(=O)c4c(C)cc(C)nc4n(C)c3=O)c(C)o2)cc1 | 1200 s
Cc1cc(C)cc(NC(=O)NCCc2c(C)nn(C)c2C)c1 | 664 s

More lines, now with the values ahead:

RP-LC retention time | Compound
876 s | CCOC(=O)c1cnc(Nc2nc(-c3ccccc3)c3ccccc3n2)nc1C
1070 s | Cc1c(S(=O)(=O)N2CCCC(C)C2)c(C)n(C)c1C(=O)N1CCc2ccccc21 (stereo unspecified)
753 s | CSc1nnc(-c2nn(C)c3c2CN(C(=O)c2ccc(Br)cc2)CC3)n1C
898 s | Cc1ccccc1C(=O)Nc1nc(-c2ccc3c(c2)NC(=O)CO3)c(C)s1
568 s | COc1ccc(C2(C(=O)N3CCn4ccnc4C3C(C)C)CC2)cc1 (stereo unspecified)
606 s | COc1ccccc1N1CCN(Cc2nc3nc(C)cc(N4CCCC4)n3n2)CC1
825 s | COC(=O)CN1N=C(C(=O)N2CCC(C)CC2)S(=O)(=O)c2ccccc21
845 s | O=C(c1ccc2oc(=O)n(CC(=O)N3CCc4ccccc43)c2c1)N1CCCCC1
718 s | CN(C)c1cnc(-n2cc(NC(=O)NCCc3ccccc3)cn2)nc1
590 s | Cc1ccccc1NC(=O)Nc1cccnc1N(C)C
611 s | CCOC(=O)CCC(=O)N1CCN(Cc2nc(C(C)(C)C)cs2)CC1
896 s | Cc1ccccc1NS(=O)(=O)c1cn(C(C)C)c2ncccc12
885 s | O=C(NC1(c2nc(-c3ccncc3)no2)CCCCC1)c1ccccn1
621 s | O=C(c1cccc(Cl)c1)N1CCN(c2cc(-c3cccnc3)[nH]n2)CC1
682 s | COc1cccc(C(=O)N2C[C@@H]3C[C@H](NC(=O)c4ccccc4)[C@H]2C3)c1OC
1060 s | CCn1nccc1C(=O)NC1CCN(c2nc3c(s2)c(C)nn3-c2ccc(F)cc2)CC1
763 s | O=C(Nc1ccc(F)cc1F)N1CCN(Cc2nc3cc(Cl)ccc3o2)CC1
866 s | O=C(Cc1ccc(NC(=O)c2ncc(-c3ccccc3)o2)cc1)NCc1cccs1
968 s | CCc1ccc(NC(=O)Cn2nc3cc(C)nc(N4CCCC4)n3c2=O)cc1
662 s | CCCn1c(CCNC(=O)c2ccc(OC)cc2)nc2cccnc21
607 s | Cc1cc(N(C)C)n2nc(CN3CCN(c4ccccc4)CC3)nc2n1
912 s | COc1cccc(-c2ccc3nc(N4CCC(C(=O)N5CCCC5)CC4)sc3n2)c1
658 s | COc1ccc(-c2cc(N3CCN(C(=O)NCCC(C)C)CC3)ncn2)cc1OC
834 s | COc1ccc(NC(=O)N2CCC3(CC2)NC(=O)c2cccc(Cl)c2N3)c(C)c1
1080 s | COc1ccccc1-c1c(C(F)(F)F)oc2cc(OC(=O)C3CC3)ccc2c1=O

RP-LC retention time | Compound
947 s | Cc1nc(N2CCN(C(=O)Nc3cccc(C(F)(F)F)c3)CC2)cc(-n2cccn2)n1
824 s | Cc1ccsc1C(=O)NCCn1c(=O)n(Cc2ccc(F)cc2)c2cccnc21
880 s | CCOC(=O)c1cc2n(n1)CC(C)(C(=O)NCc1ccccc1)N(Cc1ccccc1)C2=O (stereo unspecified)
1210 s | Cc1cccc(-c2nc(Cn3nnc(C(=O)NCc4cccc(Br)c4)c3C)c(C)o2)c1
1040 s | CCc1ccccc1NC(=O)Cn1nc2cc(C)nc(Nc3ccc(F)cc3)n2c1=O
1250 s | Cc1cccc(-c2noc(-c3nn(CC(=O)NC4CCCCC4)c4ccccc34)n2)c1
655 s | CNc1nc(Nc2ccc(F)cc2)nc2ccccc12
579 s | CN(C)C(=O)CN1CCN(c2cc(C(=O)O)c3cc(NC(=O)c4ccc(F)cc4)ccc3n2)CC1
625 s | COc1cccc(S(=O)(=O)N2CCC(N3C[C@H](OC)[C@@H]3c3ccncc3)CC2)c1
801 s | COc1ccc(-c2ccc(S(=O)(=O)NCc3ccc(C(=O)O)cc3)cc2)cc1
852 s | CC(C)Cn1nc(CNC(=O)c2ccco2)c2ccccc21
829 s | CCOC(=O)C1CCN(C(=O)c2nnc(-c3ccc(S(=O)(=O)N(C)C)cc3)o2)CC1
896 s | O=C(NCc1ccccc1)c1cc2c(=O)n(Cc3ccccc3)ccc2s1
648 s | O=C(c1sc2ncccc2c1-n1cccc1)N1CCN(Cc2ccccc2)CC1
1180 s | COc1ccc(CNC(=O)Nc2ccc(-c3nc(-c4ccc(C)cc4C)co3)cc2)cc1
822 s | O=C(CSc1ccc(S(=O)(=O)c2ccccc2)nn1)Nc1ccc2c(c1)OCO2
1070 s | CCc1cccc(NS(=O)(=O)c2cn(CC(C)C)c3ncccc23)c1
739 s | O=C(NC1CC1)[C@@H]1C[C@H](Oc2ccccc2)CN1C(=O)c1n[nH]c2ccccc12
615 s | CC1CN=C2C=C(N3CCN(C(=O)Nc4ccccc4C(F)(F)F)CC3)N=CN21 (stereo unspecified)
705 s | COc1ccc(-c2nc3ncccn3c2Nc2ccccc2C)cc1
840 s | CCN1C(=O)c2cccnc2Sc2cc(NC(=O)c3ccccc3C(F)(F)F)ccc21
727 s | COc1ccc(NS(=O)(=O)c2cc(-c3nc(C)c(C(=O)N4CCCC4)s3)n(C)c2)cc1OC
688 s | O=C(c1cc(-c2ccccn2)n[nH]1)N1CCCC(C(=O)N2CCc3ccccc3C2)C1 (stereo unspecified)
653 s | COc1cccc(C(=O)N2CCC(c3cc(N)on3)CC2)c1
803 s | Cc1noc(-c2cc(=O)n(CC(=O)Nc3ccc4c(c3)OCCO4)c3ccccc23)n1
